For orientation: EC50 means the concentration at which the effect is half-maximal.

The first experiment deals with T1, Human Glucokinase (Homo sapiens, UniProt P35557).
T1 construct: Full-length human hepatic GK (untagged); made in house; host or cells: E. coli BL21 STAR (DE3)pLysS
T1 sequence (P35557 1-466 isoform P35557-2): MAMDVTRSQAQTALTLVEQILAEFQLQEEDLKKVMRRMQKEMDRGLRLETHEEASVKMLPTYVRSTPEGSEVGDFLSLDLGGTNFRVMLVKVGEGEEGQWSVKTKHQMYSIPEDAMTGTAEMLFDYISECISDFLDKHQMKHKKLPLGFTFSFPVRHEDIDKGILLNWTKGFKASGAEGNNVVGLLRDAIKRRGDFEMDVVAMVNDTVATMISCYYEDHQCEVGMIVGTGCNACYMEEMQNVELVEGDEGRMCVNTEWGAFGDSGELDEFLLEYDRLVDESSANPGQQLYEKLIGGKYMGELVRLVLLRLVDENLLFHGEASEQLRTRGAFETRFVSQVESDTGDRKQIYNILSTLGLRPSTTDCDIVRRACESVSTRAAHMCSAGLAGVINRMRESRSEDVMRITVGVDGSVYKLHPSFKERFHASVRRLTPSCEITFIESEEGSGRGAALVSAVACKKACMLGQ
Kind of experiment: tandem Glucokinase activation assay (uncoupled). The format is biochemical. As to conditions: 12 mM glucose; human full-length GK 15 nM. Here is the method:
A tandem Glucokinase activation assay (uncoupled) was used to assess the activity of glucokinase (GK) in the presence of GK activator compounds. The below-described tandem assay protocol was followed using a range of activator compound concentrations from 0 to 100 µM at 5 and 12 mM concentrations of glucose. Human full-length GK (15 nM) was incubated with 5 or 12 mM glucose in 384 well black microtiter plates with a clear bottom. To initiate the GK reaction, magnesium-ATP (3 mM final concentration) was added to the protein in buffer, under the final buffer conditions of 25 mM HEPES buffer, pH 7.1, containing 1 mM DTT (dithiothreitol) and […]. The total reaction volume was 20 μL. The reaction was allowed to proceed for ten minutes and was then quenched with 5 μL EDTA (ethylenediamine tetra-acetic acid; 45 mM final). The components of the detection reaction, ThioNAD (thio-nicotinamide adenine dinucleotide) and G6PDH (glucose-6-phosphate dehydrogenase) (final concentrations of 650 μM and 3.33 Units, respectively), were then added together in a volume of 25 μL, and a total volume of 50 μL. Absorbance was read and activation calculated as a percentage of background activity, ie., GK in the presence of DMSO, with background glucose-6-phosphate subtracted. Absorbance measurements were made at 405 nm on a Spectramax Plus 384 absorbance plate reader (Molecular Devices). Background glucose-6-phosphate was determined by pre-quenching GK with EDTA prior to reaction initiation with ATP.
Expression and Purification of Human GK
Full-length human hepatic GK (untagged) as expressed in BL21 STAR (DE3)pLysS cells (Invitrogen) at 25° C. as described by Mookhtiar et al.^1 The protein was purified essentially as described by Lange^2 with a slight modification. Cell pellets were lysed via three rounds of freezing and thawing, centrifuged at 15000 g for clarification, and precipitated with 40-65% (NH4)2SO4. The resulting pellet was re-suspended in buffer dialyzed, and applied directly to a Q-Sepharose (Sigma) column followed by elution with a linear 100-600 mM KCl gradient. GK containing fractions were pooled, dialyzed overnight vs. 25 mM HEPES pH 7.2/1 mM MgCl2/1 mM EDTA/0.1 M KCl/1 mM DTT, then dialyzed again with the same buffer with 10% glycerol added. ^1Mookhtiar, K. A., Kalinowski, S. S., Brown, K. S., Tsay, Y. H., Smith-Monroy, C., and Robinson, G. W. (1996) “Heterologous expression and characterization of rat liver glucokinase regulatory protein”, Diabetes 45:1670-1677.^2Lange, A. J., Xu, L. Z., Van Poelwijk, F., Lin, K., Granner, D. K., and Pilkis, S. J. (1991) “Expression and site-directed mutagenesis of hepatic glucokinase”, Biochem. J., 277:159-163.
On to `CS(=O)(=O)c1ccc([C@@H](CC2CCCC2)C(=O)Nc2ncc(Oc3cncc(C(=O)O)c3)s2)cc1` [Example 8], for which the EC50 is 753 nM.

With `O=C(Nc1ncc(Oc2cccc(C(=O)N3CCC3)c2)s1)[C@H](CC1CCOCC1)c1ccc(S(=O)(=O)C2CC2)cc1` [Example 18], a half-maximal response (EC50) required 39 nM.

Take `O=C(Nc1ncc(Oc2cccc(C(=O)N3CC(O)C3)c2)s1)[C@H](CC1CCOCC1)c1ccc(S(=O)(=O)C2CC2)cc1` [Example 19]: the EC50 worked out at 38 nM. `CS(=O)(=O)c1ccc([C@@H](CC2CCCC2)C(=O)Nc2ncc(Oc3ccc(C#N)cc3)s2)cc1` [Example 20] yielded an EC50 of 8700 nM. On the same count and under the same terms, as for `CS(=O)(=O)c1ccc([C@@H](CC2CCCC2)C(=O)Nc2ncc(Oc3cccc(C(N)=O)c3)s2)cc1` [Example 21], the figure is 858 nM; as for `CS(=O)(=O)c1ccc([C@@H](CC2CCCC2)C(=O)Nc2ncc(Oc3ccccc3C(N)=O)s2)cc1` [Example 24], 3960 nM.

The next experiment concerns DIO mice. Put plainly: Oral glucose tolerance test (OGTT) in DIO mice. The experiment is classed as in vivo. As to conditions: male DIO C57BL/6J mice, 60 mg/kg oral, given 60 min before 2 g/kg glucose, ΔAUC 0-120 min. On the procedure: In Vivo Studies: Oral Glucose Tolerance Test (OGTT)
Oral glucose tolerance tests were carried out on male DIO (diet-induced obese C57BL/6J mice fed a high fat diet (60% kcal from fat) for 26 weeks prior to experimentation. Mice were fasted overnight before use for experiments. A test compound or vehicle (10% dimethyl acetamide+10% ethanol+10% Cremophore+70% water) was given orally 60 min before oral administration of a glucose solution at a dose of 2 g/kg body weight (oral glucose tolerance test; OGTT). Blood glucose levels were measured from tail-bled samples taken at different time points before and after administration of glucose (time course of 2 hours). A time curve of the blood glucose was generated and the change from baseline area-under-the curve (ΔAUC) from 0-120 min was calculated (the time glucose administration being time zero).
With `CS(=O)(=O)c1ccc([C@@H](CC2CCCC2)C(=O)Nc2ncc(Oc3ccc(C(=O)O)cc3)s2)cc1` [Example 9], the “reduction of glucose AUC levels in an OGTT” value is reported as 37%.

The values above are taken from patent publication US7888504B2, “Glucokinase activators and methods of using same” (Bristol-Myers Squibb Company, priority 2006, dated 2011).
